Results: patent US9850283B2, “Macrocyclic inhibitors of the PD-1/PD-L1 and CD80(B7-1)/PD-L1 protein/protein interactions” (BRISTOL-MYERS SQUIBB COMPANY, priority 2013, dated 2017)
Like-named read-outs stand apart in the source and are kept apart here. Positions of bridges follow the written chain, without caps; N, C: chain ends. Non-standard residues stand in square brackets, D forms with d. Residues, ends and D or L forms follow the SMILES beside them. Trp(5-OH) = N[C@@H](Cc1c[nH]c2ccc(O)cc12)C(=O)O; NMeF = CN[C@@H](Cc1ccccc1)C(=O)O; NMeNle = CCCC[C@H](NC)C(=O)O; Dap = NC[C@H](N)C(=O)O; Sar = CNCC(=O)O

Experiments:
[1] = molecular target: T1, Human PD-L1/PD-1 (Homo sapiens, UniProt Q9NZQ7); experiment: HTRF PD-1-Ig/PD-L1-His binding assay (human PD-L1)
T1 construct: made in house; host or cells: HEK293T
How it was run: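 Readout: time-resolved FRET between Eu cryptate-labeled anti-Ig (1 nM final) and APC-labeled anti-His (20 nM final) antibodies. These detect interaction of Fc-fused PD-1 with His-tagged human PD-L1 in dPBS containing 0.1% BSA and 0.05% Tween-20.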

[2] = molecular target: T2, LK35.2-hPD-L1 cells / PE-labeled PD-1-Ig (Homo sapiens, UniProt Q9NZQ7); experiment: LK35.2-hPD-L1 cell binding high-content screening assay; format: cell-based; details: cell line of CBA not given (LK35.2-hPD-L1 or 293T-hPD-L1)
T2 construct: expressed in transfected cells; host or cells: LK35.2 mouse B cell line
How it was run: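 Compound effect on PD-1/PD-L1 binding is measured by imaging cell-associated phycoerythrin signal. Human PD-1-Ig (PE on Ig tag, 1 nM final) is applied with compound to a murine B cell line overexpressing human PD-L1 for 1 h at 37 °C in serum-containing RPMI.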

[3] = cluster symbol, read-out: HTRF IC50 cluster
[4] = cluster symbol, read-out: CBA IC50 cluster

T1 sequence (Q9NZQ7 with tags, fused parts or gaps): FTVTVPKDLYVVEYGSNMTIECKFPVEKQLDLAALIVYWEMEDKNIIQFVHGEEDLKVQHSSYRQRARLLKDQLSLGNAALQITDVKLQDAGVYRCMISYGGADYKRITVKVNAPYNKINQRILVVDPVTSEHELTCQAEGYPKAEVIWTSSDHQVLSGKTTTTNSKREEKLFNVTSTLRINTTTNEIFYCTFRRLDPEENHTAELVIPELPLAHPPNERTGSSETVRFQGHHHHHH
T2 sequence (Q9NZQ7 19-290): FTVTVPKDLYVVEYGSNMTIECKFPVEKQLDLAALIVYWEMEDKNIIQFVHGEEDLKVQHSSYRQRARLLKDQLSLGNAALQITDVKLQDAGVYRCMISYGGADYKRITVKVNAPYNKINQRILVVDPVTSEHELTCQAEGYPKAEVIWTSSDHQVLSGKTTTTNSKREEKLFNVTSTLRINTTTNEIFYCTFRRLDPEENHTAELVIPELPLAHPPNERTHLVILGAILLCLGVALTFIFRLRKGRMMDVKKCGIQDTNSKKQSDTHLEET

IC50 [1, 3] [nM] | IC50 [2, 4] [nM] | IC50 ([1]; read-out: HTRF IC50 value) [nM] | IC50 ([2]; read-out: CBA IC50 value) [nM] | Structure (SMILES)
6.76 to 30.3 | 4.78 to 72.9 | – | – | CCCC[C@H]1C(=O)N(C)CC(=O)N[C@@H](CC(=O)O)C(=O)N[C@@H](C(C)C)C(=O)N(C)[C@@H](Cc2ccccc2)C(=O)N[C@@H](Cc2c[nH]c3ccc(O)cc23)C(=O)N(C)CC(=O)N[C@@H](Cc2c[nH]c3ccccc23)C(=O)N[C@@H](Cc2ccc(O)cc2)C(=O)N[C@@H](CC(C)C)C(=O)N[C@H](C(=O)NCC(N)=O)CSCC(=O)N[C@@H](Cc2ccccc2)C(=O)N(C)[C@@H](Cc2ccccc2)C(=O)N1C [Example 3148] ({CH2CO}-F[NMeF][NMeNle][Sar]DV[NMeF][Trp(5-OH)][Sar]WYLCG-NH2; thioether N-13)
– | – | 30.3 | 8.86 | CCCC[C@H]1C(=O)N(C)CC(=O)N[C@@H](CC(=O)O)C(=O)N[C@@H]([C@@H](C)CC)C(=O)N(C)[C@@H](Cc2ccccc2)C(=O)N[C@@H](Cc2ccc(O)cc2)C(=O)N(C)CC(=O)N[C@@H](Cc2c[nH]c3ccccc23)C(=O)N[C@@H](Cc2ccc(O)cc2)C(=O)N[C@@H](CC(C)C)C(=O)N[C@H](C(=O)NCC(N)=O)CSCC(=O)N[C@@H](Cc2ccccc2)C(=O)N(C)[C@@H](Cc2ccccc2)C(=O)N1C [Example 3149] (HELM PEPTIDE1{[O=C(C[*:3])[*:2]].F.[meF].[CCCC[C@@H](C(=O)[*:2])N(C)[*:1]].[Sar].D.I.[meF].Y.[Sar].W.Y.L.C.G.[am]}$PEPTIDE1,PEPTIDE1,1:R3-14:R3$$$V2.0)
> 30.5 | > 74.3 | – | – | CCCC[C@H]1C(=O)N(C)CC(=O)N[C@@H](CC(=O)O)C(=O)N[C@@H](CCC(=O)O)C(=O)N(C)[C@@H](Cc2ccccc2)C(=O)N[C@@H](Cc2ccc(O)cc2)C(=O)N(C)CC(=O)N[C@@H](Cc2c[nH]c3ccccc23)C(=O)N[C@@H](Cc2ccc(O)cc2)C(=O)N[C@@H](CC(C)C)C(=O)N[C@H](C(=O)NCC(N)=O)CSCC(=O)N[C@@H](Cc2ccccc2)C(=O)N(C)[C@@H](Cc2ccccc2)C(=O)N1C [Example 3150] (HELM PEPTIDE1{[O=C(C[*:3])[*:2]].F.[meF].[CCCC[C@@H](C(=O)[*:2])N(C)[*:1]].[Sar].D.E.[meF].Y.[Sar].W.Y.L.C.G.[am]}$PEPTIDE1,PEPTIDE1,1:R3-14:R3$$$V2.0)
> 30.5 | > 74.3 | – | – | CCCC[C@H]1C(=O)N(C)CC(=O)N[C@@H](CC(=O)O)C(=O)N[C@@H](CCCNC(=N)N)C(=O)N(C)[C@@H](Cc2ccccc2)C(=O)N[C@@H](Cc2ccc(O)cc2)C(=O)N(C)CC(=O)N[C@@H](Cc2c[nH]c3ccccc23)C(=O)N[C@@H](Cc2ccc(O)cc2)C(=O)N[C@@H](CC(C)C)C(=O)N[C@H](C(=O)NCC(N)=O)CSCC(=O)N[C@@H](Cc2ccccc2)C(=O)N(C)[C@@H](Cc2ccccc2)C(=O)N1C [Example 3151] (HELM PEPTIDE1{[O=C(C[*:3])[*:2]].F.[meF].[CCCC[C@@H](C(=O)[*:2])N(C)[*:1]].[Sar].D.R.[meF].Y.[Sar].W.Y.L.C.G.[am]}$PEPTIDE1,PEPTIDE1,1:R3-14:R3$$$V2.0)
6.76 to 30.3 | 4.78 to 72.9 | – | – | CCCC[C@H]1C(=O)N(C)CC(=O)N[C@@H](CN)C(=O)N[C@@H](C(C)C)C(=O)N(C)[C@@H](Cc2ccccc2)C(=O)N[C@@H](Cc2ccc(O)cc2)C(=O)N(C)CC(=O)N[C@@H](Cc2c[nH]c3ccccc23)C(=O)N[C@@H](Cc2ccc(O)cc2)C(=O)N[C@@H](CC(C)C)C(=O)N[C@H](C(=O)NCC(N)=O)CSCC(=O)N[C@@H](Cc2ccccc2)C(=O)N(C)[C@@H](Cc2ccccc2)C(=O)N1C [Example 3152] ({CH2CO}-F[NMeF][NMeNle][Sar][Dap]V[NMeF]Y[Sar]WYLCG-NH2; thioether N-13)
